Test results: patent US4259328A, “Morpholino pyridazinylhydrazones” (Richter Gedeon Vegyeszeti Gyar Rt, priority 1977, dated 1981)
Where two headings read alike, the source gives them in different places.

Assays:
[1] = Acute toxicity (LD50) on mice; settings: mouse, in vivo, po
[2] = system: spontaneous hypertensive rats (Wistar-Okamoto rats); experiment: Blood pressure lowering activity, systolic blood pressure of waking spontaneous hypertensive rats, oral; assay type: in vivo, rat; settings: for change in vivo at 50 mg/kg / change in vivo at 1.25 mg/kg: Rattus norvegicus, read-out: Reduction in blood pressure; for change in vivo at 50 mg/kg / change in vivo at 1.25 mg/kg / Reduction in blood pressure: oral; for significant blood pressure lowering activity: ≥-15%; for change in vivo at 50 mg/kg / Reduction in blood pressure: 50 mg/kg
Procedure: Blood pressure lowering activity of the new compounds according to the invention was tested on spontaneous hypertensive rats (Wistar-Okamoto rats) following the method described in Arzn. Forsch., 6, 222 (1956). Systolic blood pressure of waking animals was measured in arteria caudalis 4, 24, 48 and 72 hours after the oral administration of the test compounds.

[3] = target: T1, tyrosine-hydroxylase (Rattus norvegicus, UniProt P04177); experiment: In vitro tyrosine-hydroxylase inhibiting activity (TH) on rat adrenal homogenate; assay type: biochemical; settings: read-out: Enzyme inhibiting activity, TH; for inhibition at 100 µM: 10^-4 mole/liter; for inhibition at 10 µM: 10^-5 mole/liter
T1 construct: on rat adrenal homogenate; from tissue; host or cells: rat adrenal homogenate
T1 sequence (P04177 whole entry): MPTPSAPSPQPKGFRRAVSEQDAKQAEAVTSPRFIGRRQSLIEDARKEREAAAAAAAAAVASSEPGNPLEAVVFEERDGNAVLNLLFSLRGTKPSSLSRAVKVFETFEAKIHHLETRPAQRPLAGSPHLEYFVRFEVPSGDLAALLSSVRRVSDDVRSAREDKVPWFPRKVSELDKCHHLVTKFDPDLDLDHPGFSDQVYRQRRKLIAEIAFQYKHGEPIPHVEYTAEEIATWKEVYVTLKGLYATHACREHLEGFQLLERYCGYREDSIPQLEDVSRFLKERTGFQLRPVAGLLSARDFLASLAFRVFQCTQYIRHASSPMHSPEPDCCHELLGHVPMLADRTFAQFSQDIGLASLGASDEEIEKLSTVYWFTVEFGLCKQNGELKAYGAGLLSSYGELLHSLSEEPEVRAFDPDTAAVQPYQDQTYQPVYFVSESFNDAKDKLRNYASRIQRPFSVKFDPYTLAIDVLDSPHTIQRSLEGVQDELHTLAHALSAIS
Procedure: In vitro tyrosine-hydroxylase inhibiting activity (TH inhibiting activity) of the new compounds according to the invention was tested by the method of Nagatsu [Anal. Biochem., 9, 122 (1964)] on rat adrenal homogenate. Radioactive tyrosine was purified by the method elaborated by Ikeda [J. Biol. Chem., 241, 4452 (1966)]. TH activity of the rat adrenal homogenate amounted to […] nmoles/mg protein/60 min.
(§1) Inhibiting effect of several compounds encompassed by the formula I in comparison with some known compounds is listed in the following Table I.

[4] = target: T2, dopamine-β-hydroxylase (Bos taurus, UniProt P15101); experiment: Dopamine-β-hydroxylase inhibiting activity (DBH) on bovine adrenal (gland) preparations; assay type: biochemical; settings: read-out: Enzyme inhibiting activity, DBH; for inhibition at 100 µM: 10^-4 mole/liter; for inhibition at 10 µM: 10^-5 mole/liter
T2 construct: from tissue; host or cells: bovine adrenal (gland) preparations
T2 sequence (P15101 1-610): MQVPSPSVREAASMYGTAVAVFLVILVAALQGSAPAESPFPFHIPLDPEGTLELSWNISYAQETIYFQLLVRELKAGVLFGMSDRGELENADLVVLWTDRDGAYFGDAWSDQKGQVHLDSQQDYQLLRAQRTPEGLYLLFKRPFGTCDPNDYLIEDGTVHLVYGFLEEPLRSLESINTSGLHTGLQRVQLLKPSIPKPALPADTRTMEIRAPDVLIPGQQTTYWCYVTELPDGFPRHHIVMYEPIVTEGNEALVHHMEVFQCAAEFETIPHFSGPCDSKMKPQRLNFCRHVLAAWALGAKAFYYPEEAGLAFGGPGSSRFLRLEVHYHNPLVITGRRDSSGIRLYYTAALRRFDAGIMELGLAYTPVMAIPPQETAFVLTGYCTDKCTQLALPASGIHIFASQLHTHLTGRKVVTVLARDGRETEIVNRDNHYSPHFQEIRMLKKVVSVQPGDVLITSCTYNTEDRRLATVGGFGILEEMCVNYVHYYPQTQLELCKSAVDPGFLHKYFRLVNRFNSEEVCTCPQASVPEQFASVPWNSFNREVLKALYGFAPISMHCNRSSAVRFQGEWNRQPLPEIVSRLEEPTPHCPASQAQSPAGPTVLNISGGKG
Procedure: Dopamine-β-hydroxylase inhibiting activity (DBH inhibiting activity) of the compounds according to the invention was tested on bovine adrenal (gland) preparations by a modified version of Nagatsu's method [B.B. Acta, 139 319 (1967)].
as §1

[5] = system: mice; experiment: Acute toxicity (LD50) on mice; settings: i.p.

Row | Compound | LD50 [1] | change in vivo at 50 mg/kg ([2]; 4 hours) | change in vivo at 50 mg/kg ([2]; 24 hours) | significant blood pressure lowering activity [2] | inhibition at 100 µM [3] | inhibition at 10 µM [3] | inhibition at 100 µM [4] | inhibition at 10 µM [4] | duration of blood pressure lowering effect ([2]; dose 20 mg/kg) | duration of blood pressure lowering effect ([2]; dose of 50 mg/kg) | change in vivo at 1.25 mg/kg ([2]; 4 hours) | change in vivo at 1.25 mg/kg ([2]; 24 hours) | Acute toxicity [LD50] on mice [5] | Reduction in blood pressure ([2]; 4 hours) | Reduction in blood pressure ([2]; 24 hours)
1 | CCOC(=O)C1CCCCC1=NNc1ccc(Cl)nn1 (stereo not shown) [Example 17, 2-(Ethoxycarbonyl)-1-cyclohexylidene-3-chloro-6-pyridazinylhydrazone] | 300 mg/kg | -23% | -13% | ≥ -15% | 85% | 33% | 70% | 10% | – | – | – | – | – | – | –
2 | O=C(O)C1CCCCC1=NNc1cccnn1 (stereo not shown) [Example 19, 2-carboxy-1-cyclohexylidene-3-pyridazinylhydrazone] | > 200 mg/kg | -8% | -9% | – | 82% | 30% | 75% | 10% | – | – | – | – | – | – | –
3 | CCOC(=O)CC(C)=NNc1ccc(Cl)nn1 [Example 20, 3-(Ethoxycarbonyl)-2-propylidene-(3-chloro-6-pyridazinyl)hydrazone] | 530 mg/kg | -25% | -25% | ≥ -15% | 100% | 50% | 100% | 87% | – | – | – | – | – | – | –
4 | CCCOC(=O)CC(C)=NNc1ccc(Cl)nn1 [Example 28, 3-(Propoxycarbonyl)-2-propylidene-3-chloro-6-pyridazinylhydrazone] | > 200 mg/kg | -29% | -25% | ≥ -15% | 0% | 0% | 90% | 71% | – | – | – | – | – | – | –
5 | CC(CC(=O)OC(C)C)=NNc1ccc(Cl)nn1 [Example 29, 3-(Isopropoxycarbonyl)-2-propylidene-3-chloro-6-pyridazinylhydrazone] | 250 mg/kg | -30% | -15% | ≥ -15% | 50% | 0% | 70% | 47% | 48 h | 72 h | – | – | – | – | –
6 | CC(CC(=O)OC(C)(C)C)=NNc1ccc(Cl)nn1 [Example 30, 3-(tert.-Butoxycarbonyl)-2-propylidene-3-chloro-6-pyridazinylhydrazone] | 250 mg/kg | -31% | -14% | ≥ -15% | 50% | 0% | 70% | 22% | 48 h | 72 h | – | – | – | – | –
7 | CC(CC(=O)OC(C)(C)C)=NNc1ccc(N2CCOCC2)nn1 [Example 52, 3-(tert.-Butoxycarbonyl)-2-propylidene-3-morpholino-6-pyridazinylhydrazone] | 400 mg/kg | – | – | ≥ -15% | 65% | 40% | 30% | 0% | – | – | -21% | -9% | – | – | –
8 | COC(=O)CC(=NNc1ccc(Cl)nn1)C(=O)OC [Example 64, 1,2-di-(methoxycarbonyl)-ethylidene-(3-chloro-6-pyridazinyl)hydrazone] | > 200 mg/kg | -25% | -11% | ≥ -15% | 36% | 10% | 50% | 0% | – | – | – | – | – | – | –
9 | Fumaric acid [reference compound] | – | – | – | – | – | – | – | – | – | – | – | – | 80 mg/kg | -33% | 0%
